Laboratory results reported in PMC10016038, “Enhanced Endosomal Signaling and Desensitization of GLP-1R vs GIPR in Pancreatic Beta Cells” (Endocrinology, 2023).
“Also recorded” adds a separate entry of the source.

Legend:
[1] = test system: INS-1 832/3 GIPR KO cells; assay: Insulin secretion assay, GIPR KO cells; assay type: cell-based, rat; conditions: 100 nM, 11 mM glucose; n = 4
Protocol: (§1) At the end of the treatments, the supernatant containing the secreted insulin was collected, centrifuged at 1000g for 3 minutes, and transferred to a fresh tube. To determine total insulin content, cells were lysed using KRBH buffer + 1% w/v BSA + 1% v/v Triton X-100 (Sigma). The lysates were sonicated 3 × 10 seconds in a water bath sonicator and centrifuged at 10 000g for 10 minutes, and the supernatants collected. The samples were stored at −20 °C until the insulin concentration was determined using an Insulin Ultra-Sensitive HTRF Assay kit (62IN2PEG, Cisbio, Codolet, France) according to the manufacturer's instructions.
(§2) Figure 7. Functional analysis of GLP-1R vs GIPR signaling in beta cells. […] Data are mean ± SEM, compared by paired t tests; *P < .05; ns, nonsignificant.

[2] = test system: INS-1 832/3 WT cells; assay: Insulin secretion assay, INS-1 832/3 WT cells; assay type: cell-based, rat; conditions: 100 nM, 11 mM glucose; WT n = 3
Protocol: as §1, §2

[3] = test system: GIPR-NanoLuc; assay: Mini-Gs-Venus recruitment NanoBRET, GIPR; assay type: cell-based; conditions: 100 nM, n = 4
Protocol: Mini-Gs-Venus was a gift from Prof. Nevin Lambert, Augusta University, USA. INS-1 832/3 GLP-1R KO or GIPR KO cells were seeded in 12-well plates and co-transfected with 0.5 µg mini-Gs-Venus and either 0.5 µg GLP-1R- or GIPR-NanoLuc, respectively.
(§3) All NanoBiT and NanoBRET readings were obtained in a Flexstation 3 plate reader. Briefly, 24 hours after transfection, cells were detached, resuspended in NanoGlo Live Cell Reagent (Promega) with furimazine (1:20 dilution) and seeded into white 96-well half-area plates. […] Readings were normalized to well baseline and then to average vehicle-induced signal to establish the agonist-induced effect. AUCs from response curves were calculated for each agonist concentration and fitted to four-parameter curves using Prism 9 (GraphPad).
Figure 5. Beta cell GLP-1R vs GIPR G protein subtype and β-arrestin 2 recruitment characteristics. (A) Kinetics of Gαs, Gαq, Gαi, and β-arrestin 2 recruitment to the GLP-1R assessed by NanoBiT complementation assay in INS-1 832/3 GLP-1R KO cells transiently expressing GLP-1R-SmBiT and the corresponding mini-G protein subtype or β-arrestin 2. […] (B) Kinetics of Gαs, Gαq, Gαi, and β-arrestin 2 recruitment to the GIPR assessed by NanoBiT complementation assay in INS-1 832/3 GIPR KO cells transiently expressing GIPR-SmBiT and the corresponding mini-G protein subtype or β-arrestin 2. […]

[4] = test system: GIPR-NanoLuc; assay: Rab5-Venus bystander NanoBRET (early endosome), GIPR; assay type: cell-based; conditions: n = 5
Source text: (§4) GLP-1R-NanoLuc was generated in house by polymerase chain reaction (PCR) cloning of the NanoLuciferase sequence from pcDNA3.1-ccdB-NanoLuc (a gift from Prof. Mikko Taipale; Addgene plasmid # 87067) onto the C-terminus end of the SNAP-GLP-1R vector (CisBio), followed by site-directed mutagenesis of the GLP-1R stop codon. GIPR-NanoLuc was subsequently cloned in house by exchanging the GLP-1R for the GIPR in the GLP-1R-NanoLuc construct. KRAS- and Rab5-Venus plasmids were a gift from Prof. Kevin Pfleger, University of Western Australia. The INS-1 832/3 GLP-1R KO and GIPR KO cells were seeded in 12-well plates and co-transfected with 0.2 µg KRAS-Venus and 0.1 µg GLP-1R- or GIPR-NanoLuc, respectively, or 0.5 µg Rab5-Venus and 0.1 µg GLP-1R- or GIPR-NanoLuc, respectively.
as §3
(§5) Figure 2. Endosomal vs plasma membrane localization of GLP-1R compared with GIPR in beta cells. […]

[5] = test system: SNAP-tagged human GIPR; assay: RICS receptor diffusion / clustering, SNAP-GIPR; assay type: cell-based; conditions: 5 minutes, 100 nM; n = 4
[6] = test system: SNAP-tagged human GIPR; assay: Colocalization with SNX27-GFP, SNAP-GIPR; assay type: cell-based; conditions: 3 hours stimulation with 100 nM
[7] = test system: SNAP-tagged human GIPR; assay: High-content microscopy internalization, SNAP-GIPR; assay type: cell-based; conditions: BG-S-S-649, 30 min, 37 °C, respective endogenous agonists, n = 5
Protocol: The assay was performed as previously described ([21]). The INS-1 832/3 SNAP-GLP-1R or SNAP-GIPR cells were seeded into poly-D-lysine-coated, black 96-well plates. On the day of the assay, labeling was performed with BG-S-S-649 (1 µM), a surface-labeling SNAP-tag probe that can be released on application of reducing agents such as Mesna. After washing, treatments were applied for 30 minutes at 37 °C in complete medium. Ligand was removed and cells washed with cold HBSS and placed on ice for subsequent steps. Mesna (100 mM in alkaline TNE buffer, pH 8.6) or alkaline TNE buffer without Mesna was applied for 5 minutes, and then washed with HBSS. Cells were imaged by widefield microscopy, with both epifluorescence and transmitted phase contrast images acquired. On imaging completion, HBSS was removed and replaced with fresh complete medium, and receptor was allowed to recycle for 60 minutes at 37 °C, followed by a second Mesna application to remove any receptor that had recycled to the plasma membrane, with the plate re-imaged as above. Internalized receptor at each time point was determined from cell-containing regions as determined from the phase contrast image using […] ([22]) and used to determine internalization and recycling parameters as previously described ([21]). […]

[8] = test system: GLP-1R-NanoLuc; assay: Rab5-Venus bystander NanoBRET (early endosome), GLP-1R; assay type: cell-based; conditions: n = 5
Source text: as §4, §3, §5

Substance	Insulin secretion response in GIPR KO cells [1]	Insulin secretion, GIP compared with GLP-1 [2]	Gαs recruitment to the GIPR compared to the GLP-1R [3]	Agonist-mediated redistribution of GIPR to Rab5-positive early endosomes [4]	GIPR diffusion (RICS) upon stimulation [5]	SNAP-GIPR colocalization with SNX27 [6]	Internalization of GIPR compared with GLP-1R [7]	Agonist-mediated redistribution of GLP-1R to Rab5-positive early endosomes [8]
GIP(1-42)	abolished	nonsignificant tendency toward improvement; also recorded: tendency toward increased	significantly reduced Gαs recruitment	virtually absent	marked slowing of diffusion	sustained	significantly less internalization	
GLP-1(7-36)NH2								clearly detectable
